Results on four compounds are retold here after patent publication US20240166665A1, “COVALENT EGFR INHIBITORS AND METHODS OF USE THEREOF” (Dana-Farber Cancer Institute, Inc., priority 2021, published 2024).

By IC50 is commonly meant the concentration needed to halve the response being measured.

For one assay, the system named is BaF3 EGFR L858R/C797S. As to the kind of experiment: Ba/F3 cell proliferation (Cell Titer Glo). In kind it is cell-based, murine. To be noted: Mus musculus, 72 hours exposure. From the text: (§1) The EGFR mutant L858R Ba/F3 cells have been previously described (Zhou, W., et al. Nature 462, 2009, 1070-1074). The EGFR C797S and C775S mutations were introduced via site directed mutagenesis using the Quick Change Site-Directed Mutagenesis kit into a vector containing EGFR L858R mutation (Stratagene; La Jolla, CA) according to the manufacturers instructions. All constructs were confirmed by DNA sequencing. The constructs were then shuttled into the retroviral vector JP1540 by either using the Cre-recombination system (Agilent Technologies, Santa Clara, CA) or the In-fusion HD Cloning kit (TakaR^a Bio USA, Inc.; Mountain view, CA). Ba/F3 cells were then infected with retrovirus per standard protocols, as described previously (Zhou, et al, Nature 2009). Stable clones were obtained by selection in puromycin (2 μg/ml). All BaF/3 mutant cells were maintained in RPMI 1640 (Cellgro; Mediatech Inc., Herndon, CA) supplemented with 10% FBS, 100 units/mL penicillin, 100 units/mL streptomycin.
(§2) Growth and inhibition of growth was assessed by the Cell Titer Glo assay (Promega, Madison, WI) and was performed according to the manufacturer's instructions. The Cell Titer Glo assay is a luminescence-based method used to determine the number of viable cells based on quantitation of the ATP present, which is directly proportional to the amount of metabolically active cells present. Ba/F3 cells of different EGFR genotypes were exposed to compounds for 72 hours and the number of cells used per experiment was determined empirically as has been previously established (Zhou, et al., Nature 2009). All experimental points were set up in triplicates in 384-well plates. […] The curves were fitted using a non-linear regression model with a sigmoidal dose response.
A general note: Cellular ATP, detected with luciferase, serves as a proxy for viable cell number.

Another assay has as its system BaF3 EGFR L858R. As to the kind of experiment: Ba/F3 cell proliferation (Cell Titer Glo). In kind it is cell-based, murine. The settings on record: Mus musculus, 72 hours exposure.
Excerpt: as §1, §2

A further assay addresses EGFR L858R (Homo sapiens (Human), UniProt P00533, L858R). The experiment in a line: HTRF-based EGFR biochemical assay. To be noted: 100 μM ATP, 30 min preincubation, enzyme 0.1 nM. As for the experimental part:
(§3) EGFR biochemical activity measurements were carried out using the homogeneous time-resolved fluorescence (HTRF) assay (Cisbio). Inhibitors and DMSO normalizations were first dispensed to empty black low-volume 384-well plates (Corning) with D300 digital liquid dispenser (HP). All reactions were carried out at room temperature and solutions were added to plates with a Multidrop Combi Reagent Dispenser (ThermoFisher). The reaction mixture (10 μL final volume) contained 1 μM tyrosine kinase peptide-biotin substrate and mutant EGFR in a reaction buffer (50 mM HEPES pH 7.0, 5 mM MgCl2, 1 mM MnCl2, 0.01% BSA, 2 mM TCEP, 0.1 mM NaVO4). Enzyme concentrations were adjusted to accommodate varying kinase activities (L858R^0.1 nM, L858R/T790M 0.02 nM). Enzyme reaction solution (2× concentrations, 5 μL) was added to 384-well plates containing compounds and incubated for 30 mins. Enzyme reactions were initiated with the addition of 5 μL of ATP to a final concentration of 100 μM and reacted for 20 mins. Reactions were quenched with the addition of 10 μL of phospho-tyrosine antibody-Europium(III) cryptate (1-to-180 volume ratio) and Streptavidin-XL665 (46.7 nM) in EDTA-containing detection buffer, then incubated at room temperature for 1 hour, and read with a PHERAstar plate reader (excitation=337 nm, emission=620 nm and 665 nm). IC50 values were determined by inhibition curves (11-point curves from 1.0 μM to 0.130 nM or 23-point curves from 1.0 μM to […]) in triplicate with non-linear least squares fit in GraphPad Prism 7.0d.

In assay [1] the target is T1, EGFR L858R/T790M (Homo sapiens (Human), UniProt P00533, L858R/T790M). As to the kind of experiment: HTRF-based EGFR biochemical assay. The settings on record: 100 μM ATP, 30 min preincubation, enzyme 0.02 nM. How it is done:
as §3
On the technique in general: In TR-FRET formats the signal depends on donor and acceptor labels being close together.

Assay [2] has as its target EGFR L858R/T790M/C797S protein (Homo sapiens (Human), UniProt P00533, C797S/L858R/T790M). As to the kind of experiment: MS intact labeling assay. To be noted: 10-fold molar excess of compound, 2 h at 30° C., LC-MS. In kind it is binding. As for the experimental part: (§4) EGFR L858R/T790M protein (10 μg) or EGFR L858R/T790M/C797S protein was treated with DMSO or a 10-fold molar excess of compound 001 for 2 h at 30° C. and analyzed by LC-MS using an HPLC (Shimadzu, Marlborough, MA) interfaced to an LTQ ion trap mass spectrometer (ThermoFisher Scientific, San Jose, CA). Protein (5 μg) was injected onto a reversed phase column (5 cm POROS 50R2, Applied Biosystems, Foster City, CA), desalted for 4 min (100% A), and gradient eluted (0-100% B in 1 min; A=0.2 M acetic acid in water; B=0.2 M acetic acid in acetonitrile) into the mass spectrometer (spray voltage=4.8 kV). The mass spectrometer was programmed to acquire profile mass spectra (m/z 300-2000). Raw data was deconvoluted using MagTran version 1.03b2.38.

The target of assay [3] is T1, EGFR L858R/T790M. The experiment in a line: MS intact labeling assay. The format is binding. The settings on record: 10-fold molar excess of compound, 2 h at 30° C., LC-MS. As for the experimental part: as §4
For assay [4], the system named is NSCLC that have developed resistance to gefitinib or erlotinib. The settings on record: patients with NSCLC resistant to gefitinib or erlotinib; cited from earlier work.

T1 sequence (P00533 25-1210 T790M/L858R): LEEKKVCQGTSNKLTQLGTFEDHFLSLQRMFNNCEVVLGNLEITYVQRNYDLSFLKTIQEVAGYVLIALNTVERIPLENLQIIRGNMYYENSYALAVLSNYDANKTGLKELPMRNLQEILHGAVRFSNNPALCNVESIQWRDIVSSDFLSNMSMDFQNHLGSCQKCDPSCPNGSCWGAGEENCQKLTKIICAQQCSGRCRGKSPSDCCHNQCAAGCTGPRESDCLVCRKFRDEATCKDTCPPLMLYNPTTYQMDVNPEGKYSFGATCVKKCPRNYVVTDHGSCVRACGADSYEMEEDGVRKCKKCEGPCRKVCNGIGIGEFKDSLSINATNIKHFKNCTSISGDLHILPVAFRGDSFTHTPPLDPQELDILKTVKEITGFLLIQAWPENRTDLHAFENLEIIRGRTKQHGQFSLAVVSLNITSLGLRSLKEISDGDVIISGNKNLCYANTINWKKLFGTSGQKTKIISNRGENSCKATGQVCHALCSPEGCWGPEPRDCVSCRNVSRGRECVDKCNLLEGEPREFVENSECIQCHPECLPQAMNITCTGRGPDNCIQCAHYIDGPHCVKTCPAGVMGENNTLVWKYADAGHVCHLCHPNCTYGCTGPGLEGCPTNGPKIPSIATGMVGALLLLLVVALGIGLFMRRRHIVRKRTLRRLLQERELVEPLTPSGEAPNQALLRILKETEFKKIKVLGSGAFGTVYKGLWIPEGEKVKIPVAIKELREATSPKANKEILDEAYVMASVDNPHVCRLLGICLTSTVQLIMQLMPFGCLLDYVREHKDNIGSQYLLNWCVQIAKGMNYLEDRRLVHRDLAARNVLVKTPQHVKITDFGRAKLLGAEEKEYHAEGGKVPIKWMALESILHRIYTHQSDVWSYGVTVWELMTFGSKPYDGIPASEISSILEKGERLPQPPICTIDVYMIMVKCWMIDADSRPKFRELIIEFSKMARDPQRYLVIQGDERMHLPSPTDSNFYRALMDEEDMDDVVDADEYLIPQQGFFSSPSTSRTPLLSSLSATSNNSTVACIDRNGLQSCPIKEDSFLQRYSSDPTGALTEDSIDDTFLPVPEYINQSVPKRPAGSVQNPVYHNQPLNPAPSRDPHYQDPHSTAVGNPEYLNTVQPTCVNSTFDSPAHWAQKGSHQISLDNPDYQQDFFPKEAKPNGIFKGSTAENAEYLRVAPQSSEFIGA
Sequence of EGFR L858R (P00533 25-1210 L858R): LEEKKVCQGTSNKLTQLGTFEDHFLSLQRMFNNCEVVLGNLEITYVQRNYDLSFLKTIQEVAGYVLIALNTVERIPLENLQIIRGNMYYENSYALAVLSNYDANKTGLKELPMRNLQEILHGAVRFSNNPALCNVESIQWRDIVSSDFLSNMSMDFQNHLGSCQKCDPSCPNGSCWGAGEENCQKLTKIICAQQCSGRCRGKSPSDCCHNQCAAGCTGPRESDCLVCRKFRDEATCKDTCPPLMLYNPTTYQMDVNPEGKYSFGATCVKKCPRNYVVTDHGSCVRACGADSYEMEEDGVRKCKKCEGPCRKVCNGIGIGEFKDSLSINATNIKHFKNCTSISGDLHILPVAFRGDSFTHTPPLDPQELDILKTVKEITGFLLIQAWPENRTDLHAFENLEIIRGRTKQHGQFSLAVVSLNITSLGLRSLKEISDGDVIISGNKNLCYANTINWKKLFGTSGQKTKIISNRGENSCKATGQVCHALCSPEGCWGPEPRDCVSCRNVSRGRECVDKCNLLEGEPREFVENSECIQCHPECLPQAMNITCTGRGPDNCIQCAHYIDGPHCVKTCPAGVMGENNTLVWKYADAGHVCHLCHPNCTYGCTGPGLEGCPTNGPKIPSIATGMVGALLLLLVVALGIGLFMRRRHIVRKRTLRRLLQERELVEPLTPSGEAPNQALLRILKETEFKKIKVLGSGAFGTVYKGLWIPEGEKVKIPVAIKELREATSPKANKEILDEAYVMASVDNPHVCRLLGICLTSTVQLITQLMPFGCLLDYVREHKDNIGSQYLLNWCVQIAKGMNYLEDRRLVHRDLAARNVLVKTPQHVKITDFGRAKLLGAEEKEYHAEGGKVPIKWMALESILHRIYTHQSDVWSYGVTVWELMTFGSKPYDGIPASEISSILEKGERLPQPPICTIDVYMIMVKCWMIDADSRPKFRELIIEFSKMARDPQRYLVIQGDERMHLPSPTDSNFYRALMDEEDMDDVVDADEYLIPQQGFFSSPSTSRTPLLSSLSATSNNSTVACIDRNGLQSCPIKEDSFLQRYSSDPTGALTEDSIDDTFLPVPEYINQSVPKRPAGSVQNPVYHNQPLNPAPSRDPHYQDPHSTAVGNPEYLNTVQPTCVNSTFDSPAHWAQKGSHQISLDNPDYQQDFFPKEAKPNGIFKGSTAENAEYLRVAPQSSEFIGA
Sequence of EGFR L858R/T790M/C797S protein (P00533 25-1210 T790M/C797S/L858R): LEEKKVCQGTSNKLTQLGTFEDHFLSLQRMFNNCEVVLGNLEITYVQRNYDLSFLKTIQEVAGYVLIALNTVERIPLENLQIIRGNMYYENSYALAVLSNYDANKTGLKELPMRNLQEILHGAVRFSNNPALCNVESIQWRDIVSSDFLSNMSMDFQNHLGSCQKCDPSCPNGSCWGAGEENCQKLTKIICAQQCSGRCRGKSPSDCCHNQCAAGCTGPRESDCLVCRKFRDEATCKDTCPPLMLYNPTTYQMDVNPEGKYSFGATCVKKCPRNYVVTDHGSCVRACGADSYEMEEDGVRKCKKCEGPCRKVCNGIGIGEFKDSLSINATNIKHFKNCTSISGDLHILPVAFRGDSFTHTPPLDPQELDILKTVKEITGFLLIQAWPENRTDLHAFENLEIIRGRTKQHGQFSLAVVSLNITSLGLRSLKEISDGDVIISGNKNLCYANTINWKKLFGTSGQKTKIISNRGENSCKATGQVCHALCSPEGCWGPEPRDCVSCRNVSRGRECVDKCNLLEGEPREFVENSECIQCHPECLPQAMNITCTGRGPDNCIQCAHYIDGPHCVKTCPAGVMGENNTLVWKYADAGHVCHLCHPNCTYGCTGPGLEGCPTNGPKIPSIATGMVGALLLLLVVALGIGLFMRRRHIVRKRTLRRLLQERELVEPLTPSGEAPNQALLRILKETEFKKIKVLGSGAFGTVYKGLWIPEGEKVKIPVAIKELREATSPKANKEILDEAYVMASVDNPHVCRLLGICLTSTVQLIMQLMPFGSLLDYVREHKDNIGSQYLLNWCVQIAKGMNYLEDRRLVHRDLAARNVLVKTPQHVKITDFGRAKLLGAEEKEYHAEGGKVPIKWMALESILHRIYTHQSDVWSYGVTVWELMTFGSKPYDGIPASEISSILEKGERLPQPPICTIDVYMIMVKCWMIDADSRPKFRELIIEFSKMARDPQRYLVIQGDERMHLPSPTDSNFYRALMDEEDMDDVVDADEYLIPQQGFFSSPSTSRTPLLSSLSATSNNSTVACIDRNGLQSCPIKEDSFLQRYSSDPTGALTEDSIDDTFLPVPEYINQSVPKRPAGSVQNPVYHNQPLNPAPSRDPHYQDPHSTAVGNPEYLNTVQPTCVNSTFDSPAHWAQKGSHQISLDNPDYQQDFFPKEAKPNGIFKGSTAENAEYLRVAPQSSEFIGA

As for `C=CC(=O)Nc1cc2cc(c1)-c1cnn(C)c1OCCC[C@@H](C)Cn1c(nc3ccc(Br)cc31)NC2=O` [Compound 001], the IC50 in the assay on BaF3 EGFR L858R/C797S was 1.46 µM; in the assay with BaF3 EGFR L858R it was 2.9 µM; at EGFR L858R it was above 0.1 µM; on EGFR L858R/T790M [1], above 0.1 µM. The “Percent Labeling” value (in assay [2]; at EGFR L858R/T790M [3]) was 80% each time.

As to `C=CC(=O)Nc1cc2sc1-c1cnn(C)c1OCCC[C@@H](C)Cn1c(nc3ccc(Br)cc31)NC2=O` [Compound 002], the IC50 is 3.58 µM in the assay with BaF3 EGFR L858R/C797S, 4.42 µM in the assay with BaF3 EGFR L858R, above 0.1 µM at EGFR L858R and above 0.1 µM on EGFR L858R/T790M [1].

Regarding `C=CC(=O)Nc1cc2sc1-c1cnccc1OCCC[C@@H](C)Cn1c(nc3ccc(Br)cc31)NC2=O` [Compound 003], the results for the IC50 with BaF3 EGFR L858R/C797S and in the assay with BaF3 EGFR L858R were 4.03 µM and 4.43 µM, respectively.

Take `CN(C)C/C=C/C(=O)Nc1cc2c(Nc3ccc(F)c(Cl)c3)ncnc2cc1O[C@H]1CCOC1` [afatinib]: the “RR (response rate)” value in assay [4] is on record as “less than 10%”.
